Measurements: patent publication US11472799B2, “Serine threonine kinase (AKT) degradation / disruption compounds and methods of use” (Icahn School of Medicine at Mount Sinai, priority 2018, dated 2022)

These molecules were tested on AKT (assay: Western blot of AKT protein levels and downstream signaling in BT474 cells). Conditions: Western blot (FIGS. 1, 3, 4).
Type: cell-based, human
Outline: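 Lysates were immunoblotted with chemiluminescent detection for p-AKT Ser473, total AKT, p-S6 Ser240/244 and p-PRAS40 Thr246, using actin as loading control.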

Compound | suppression of AKT protein level and AKT activity
C[C@@H]1C[C@@H](O)c2ncnc(N3CCN(C(=O)[C@H](CNCCNC(=O)CCOCCOCCOCCNc4cccc5c4C(=O)N(C4CCC(=O)NC4=O)C5=O)c4ccc(Cl)cc4)CC3)c21 (stereo partly drawn) [XF048-2, N-(2-(((S)-2-(4-chlorophenyl)-3-(4-((5R,7R)-7-hydroxy-5-methyl-6,7-dihydro-5H-cyclopenta[d]pyrimidin-4-yl)piperazin-1-yl)-3-oxopropyl)amino)ethyl)-3-(2-(2-(2-((2-(2,6-dioxopiperidin-3-yl)-1,3-dioxoisoindolin-4-yl)amino)ethoxy)ethoxy)ethoxy)propanamide] | effective in suppressing both AKT protein level and AKT activity

The molecules below were run on AKT (assay: Western blot of AKT protein levels in PC-3 cells). Conditions: 1 μM (FIGS. 11 and 12).
Type: cell-based, human
Description: PC-3, U87MG, HCC1143, MDA-MB-231, MDA-MB-468, BT474 and MCF-7 cell lines were purchased from ATCC. Cell lines were regularly tested in the lab for mycoplasma. All cells were cultured at 37° C. and 5% CO2. PC-3, U87MG, MDA-MB-231, MCF-7 and BT474 cells were cultured in 1×DMEM (Corning, 10-013-CV) with 10% fetal bovine serum (Atlanta Biologicals S11150) and 1× Penicillin/Streptomycin. HCC1143 cells were cultured in RPMI (Corning, 10-040-CV) medium with 10% fetal bovine serum (Atlanta Biologicals S11150) and 1× Penicillin/Streptomycin. Cells were split using 0.05% or 0.25% trypsin (Corning 25-051-Cl or 25-053-Cl, respectively) before they reached full confluence and media was changed every 3-4 days. Cells were treated with compounds individually at different concentrations for 24 hrs. Cells were treated with DMSO, VHL, or PML alone as controls.
Cells were lysed in 2× sample buffer (125 mM Tris-HCl at pH 6.8, 10% βME, 2% SDS, 20% glycerol, 0.05% Bromophenol Blue, 8 M urea). Protein lysates were loaded into 4-12% Bis-Tris gels and resolved by electrophoresis. Samples were then blotted on PVDF membrane (Millipore IPVH00010) using the wet transfer technique (Invitrogen). Membranes were blocked in 5% milk-TBST for 1 hour, washed in TBST for 10 min, and incubated in primary antibody in 5% milk-TBST or 5% BSA-TBST at 4° C. for 16 h. Membranes were rinsed (3×6 min) in TBST and incubated in horseradish peroxidase-conjugated secondary antibodies in 5% milk-TBST for 1 hour and rinsed again in TBST (3×6 min). Membranes were visualized using the chemiluminescence system (Thermo 34080, 37075) on autoradiography film (Denville E3018). Primary Antibodies: R-actin (Sigma A5316), p-AKT (Ser473 CST-9721), total AKT (CST-9272), p-S6 (Ser240/244, CST-5364), p-PRAS40 (Thr246, CST-2997). Secondary Antibodies: Mouse (Thermo 31432), Rabbit (Thermo 31460).

Compound | suppression of AKT protein level and AKT activity
CCn1c(-c2nonc2N)nc2c(C#CC(C)(C)O)ncc(OCCCNCCCC(=O)NCCCCCCCCNc3cccc4c3C(=O)N(C3CCC(=O)NC3=O)C4=O)c21 (centres unmarked) [XF067-113, 4-((3-((2-(4-amino-1,2,5-oxadiazol-3-yl)-1-ethyl-4-(3-hydroxy-3-methylbut-1-yn-1-yl)-1H-imidazo[4,5-c]pyridin-7-yl)oxy)propyl)amino)-N-(8-((2-(2,6-dioxopiperidin-3-yl)-1,3-dioxoisoindolin-4-yl)amino)octyl)butanamide] | effective in suppressing AKT protein level and AKT activity
CCn1c(-c2nonc2N)nc2c(C#CC(C)(C)O)ncc(OCCCNCCCC(=O)NCCCCCCCCCC(=O)N[C@H](C(=O)N3C[C@H](O)C[C@H]3C(=O)NCc3ccc(-c4scnc4C)cc3)C(C)(C)C)c21 [XF067-100, (2S,4R)-1-((S)-2-(10-(4-((3-((2-(4-amino-1,2,5-oxadiazol-3-yl)-1-ethyl-4-(3-hydroxy-3-methylbut-1-yn-1-yl)-1H-imidazo[4,5-c]pyridin-7-yl)oxy)propyl)amino)butanamido)decanamido)-3,3-dimethylbutanoyl)-4-hydroxy-N-(4-(4-methylthiazol-5-yl)benzyl)pyrrolidine-2-carboxamide] | effective in suppressing AKT protein level and AKT activity
CCn1c(-c2nonc2N)nc2c(C#CC(C)(C)O)ncc(OCCCNCCCC(=O)NCCCCCCCCC(=O)N[C@H](C(=O)N3C[C@H](O)C[C@H]3C(=O)NCc3ccc(-c4scnc4C)cc3)C(C)(C)C)c21 [XF067-99, (2S,4R)-1-((S)-2-(9-(4-((3-((2-(4-amino-1,2,5-oxadiazol-3-yl)-1-ethyl-4-(3-hydroxy-3-methylbut-1-yn-1-yl)-1H-imidazo[4,5-c]pyridin-7-yl)oxy)propyl)amino)butanamido)nonanamido)-3,3-dimethylbutanoyl)-4-hydroxy-N-(4-(4-methylthiazol-5-yl)benzyl)pyrrolidine-2-carboxamide] | effective in suppressing AKT protein level and AKT activity
Cc1ncsc1-c1ccc(CNC(=O)[C@@H]2C[C@@H](O)CN2C(=O)[C@@H](NC(=O)CCCCCCCCC(=O)NCCc2cccc(-c3ccc4nc(-c5cccnc5N)n(-c5ccc(C6(N)CCC6)cc5)c4n3)c2)C(C)(C)C)cc1 [XF067-46, N^1-(3-(3-(4-(1-aminocyclobutyl)phenyl)-2-(2-aminopyridin-3-yl)-3H-imidazo[4,5-b]pyridin-5-yl)phenethyl)-N^10-((S)-1-((2S,4R)-4-hydroxy-2-((4-(4-methylthiazol-5-yl)benzyl)carbamoyl)pyrrolidin-1-yl)-3,3-dimethyl-1-oxobutan-2-yl)decanediamide] | effective in suppressing AKT protein level and AKT activity
Cc1ncsc1-c1ccc(CNC(=O)[C@@H]2C[C@@H](O)CN2C(=O)[C@@H](NC(=O)CCCCCCCCCNC(=O)CCc2cccc(-c3ccc4nc(-c5cccnc5N)n(-c5ccc(C6(N)CCC6)cc5)c4n3)c2)C(C)(C)C)cc1 [XF067-17, (2S,4R)-1-((S)-2-(10-(3-(3-(3-(4-(1-aminocyclobutyl)phenyl)-2-(2-aminopyridin-3-yl)-3H-imidazo[4,5-b]pyridin-5-yl)phenyl)propanamido)decanamido)-3,3-dimethylbutanoyl)-4-hydroxy-N-(4-(4-methylthiazol-5-yl)benzyl)pyrrolidine-2-carboxamide] | effective in suppressing AKT protein level and AKT activity
CCn1c(-c2nonc2N)nc2c(C#CC(C)(C)O)ncc(OCCCNCCCC(=O)NCCCCCCCC(=O)N[C@H](C(=O)N3C[C@H](O)C[C@H]3C(=O)NCc3ccc(-c4scnc4C)cc3)C(C)(C)C)c21 [XF067-98, (2S,4R)-1-((S)-2-(8-(4-((3-((2-(4-amino-1,2,5-oxadiazol-3-yl)-1-ethyl-4-(3-hydroxy-3-methylbut-1-yn-1-yl)-1H-imidazo[4,5-c]pyridin-7-yl)oxy)propyl)amino)butanamido)octanamido)-3,3-dimethylbutanoyl)-4-hydroxy-N-(4-(4-methylthiazol-5-yl)benzyl)pyrrolidine-2-carboxamide] | effective in suppressing AKT protein level and AKT activity
CCn1c(-c2nonc2N)nc2c(C#CC(C)(C)O)ncc(OCCCNCCCC(=O)NCCCCCCCNc3cccc4c3C(=O)N(C3CCC(=O)NC3=O)C4=O)c21 (centres unmarked) [XF067-112, 4-((3-((2-(4-amino-1,2,5-oxadiazol-3-yl)-1-ethyl-4-(3-hydroxy-3-methylbut-1-yn-1-yl)-1H-imidazo[4,5-c]pyridin-7-yl)oxy)propyl)amino)-N-(7-((2-(2,6-dioxopiperidin-3-yl)-1,3-dioxoisoindolin-4-yl)amino)heptyl)butanamide] | effective in suppressing AKT protein level and AKT activity
Cc1ncsc1-c1ccc(CNC(=O)[C@@H]2C[C@@H](O)CN2C(=O)[C@@H](NC(=O)CCCCCCCC(=O)NCCc2cccc(-c3ccc4nc(-c5cccnc5N)n(-c5ccc(C6(N)CCC6)cc5)c4n3)c2)C(C)(C)C)cc1 [XF067-45, N^1-(3-(3-(4-(1-aminocyclobutyl)phenyl)-2-(2-aminopyridin-3-yl)-3H-imidazo[4,5-b]pyridin-5-yl)phenethyl)-N^9-((S)-1-((2S,4R)-4-hydroxy-2-((4-(4-methylthiazol-5-yl)benzyl)carbamoyl)pyrrolidin-1-yl)-3,3-dimethyl-1-oxobutan-2-yl)nonanediamide] | effective in suppressing AKT protein level and AKT activity

Same assay, conditions: 1 μM for 24 h (FIGS. 11, 12)

Compound | AKT protein levels
Nc1ncccc1-c1nc2ccc(-c3ccccc3)nc2n1-c1ccc(C2(N)CCC2)cc1 [ARQ-092, 3-(3-(4-(1-Aminocyclobutyl)phenyl)-5-phenyl-3H-imidazo[4,5-b]pyridin-2-yl)pyridin-2-amine, reference compound] | no effect
CCn1c(-c2nonc2N)nc2c(C#CC(C)(C)O)ncc(OC[C@H]3CCCNC3)c21 [GSK690693, 4-(2-(4-amino-1,2,5-oxadiazol-3-yl)-1-ethyl-7-{[(3S)-3-piperidinylmethyl]oxy}-1H-imidazo[4,5-c]pyridin-4-yl)-2-methyl-3-butyn-2-ol, reference compound] | no effect
